Experimental data as given in patent US20250339569A1, “CARBONIC ANHYDRASE IX LIGANDS” (priority 2021, published 2025).
Where two headings read alike, the source gives them in different places.

Tests used:
[1] = Extended single-dose toxicity study including safety pharmacology endpoints, i.v. bolus (GLP); assay type: in vivo, beagle dogs; details: for tlast: median; for half-life / clearance / AUC(0-t) / level at 5 min / Vd: beagle, plasma; for half-life: harmonic mean; for level at 5 min: read-out: C5 min; for Vd: read-out: Vss
Experimental: The following parameters and endpoints were evaluated: mortality, clinical observations, body weights, food consumption, body temperature, local reactions, ophthalmology, clinical pathology parameters (hematology, coagulation, clinical chemistry, and urinalysis), cardiovascular and respiratory safety pharmacology endpoints along with FOB evaluation, organ weights, and macroscopic and microscopic examinations, and TK parameters. The animals from subset A (3 males and 3 females per group) were sampled for toxicokinetics (TK) at: pre-dose, 5 min, 15 min, 30 min, 1 h, 2 h, 3 h and 6 h. Blood samples were collected in K2EDTA tubes. Plasma was prepared by centrifugation (2500 g for 10 minutes, +4° C.) within 1 hour after collection, and then frozen within 1 hour after centrifugation and stored at −80° C. […] Chromatographic separation was achieved using a Waters Acquity UPLC system with a Waters Acquity HSS T3 C18 2.1×50 mm, 1.8 μm column. Chromatography was conducted at 50° C. at a flow rate of 0.7 mL/min using a mobile phase consisting of A: 1% formic acid in acetonitrile, and B: 1% formic acid in water, according to the following linear gradient: 0 to 0.1 min: 90% B; 0.1 to 4.1 min: from 90% B to 74% B; 4.1 to 4.2 min: from 74% B to 5% B; 4.2 to 4.6 min: 5% B; 4.6 to 4.7 min: from 5% B to 90% B; 4.7-5.1 min; 90% B. Detection was performed using a Sciex API6600 TOF mass spectrometer. Toxicokinetic parameters were estimated from concentration-time data using Phoenix pharmacokinetic software (version 6.4, Certara L. P.). A non-compartmental approach consistent with the bolus intravenous injection was used for parameter estimation.
The test item treatment led to unaffected body weights, weight gains, and food intake. Likewise, no treatment-related abnormalities were reported during ophthalmic examinations, urinalysis, blood biochemistry, coagulation, and hematology investigations. There were no related organ weight changes and macroscopic and microscopic observations at early and late necropsies. Jacketed external telemetry was used to evaluate the potential cardiovascular and respiratory effects in the Subset B. Cardiorespiratory telemetry recordings were performed during the pre-test, Day 1 and 14. The electrocardiogram (ECG) parameters (heart rate, PQ interval duration, QRS complex duration, and QT interval duration) were collected continuously after dosing over 10-minute periods up to 6 h and over 15-minute periods up to 24 h. Miyazaki's QT correction method (Miyazaki, H. & Tagawa, M. Japanese Association for Laboratory Animal Science 2002, 51, 465-75) was used to correct the influence of heart rate. […] Arterial blood pressure parameters (systolic and diastolic blood pressure and mean arterial pressure) were measured continuously during consecutive 30-minute periods at pre-dose and for up to 6 h after dosing and over consecutive 60-minute periods up to 24 h after dosing. The respiratory rate was monitored on the pre-test, Day 1 and Day 14 at 0.5, 1, 2, 3, 4, 6, 8, 12, 16, 20, and 24 h. […] The potential effects on central nervous system parameters were evaluated under restrained and non-restrained conditions using a FOB in Subset A. Neurologic, autonomic, and behavioral investigations were performed in the pre-test, pre-dose, and 1 hour after dosing on Day 1.

[2] = Pharmacokinetic characterization in healthy mice; assay type: in vivo, CD-1 mice; details: male, CD-1, plasma, iv, mouse; for clearance: read-out: Clearance (CL); for half-life: read-out: terminal elimination half-life (converted); for Vd: read-out: volume of distribution (Vd)
Experimental: The pharmacokinetics of DPI-4452 after a single intravenous (i.v.) dose were investigated in healthy mice. […] Plasma and urine samples collected after dosing were analyzed using a LC-HRMS (liquid chromatography coupled with high-resolution mass spectrometry) assay method. Concentration values were used for pharmacokinetic calculations.
Male CD-1 mice (3 animals per time point and per dose level; overall, 28.2-37.6 g body weight) were administered intravenously in the tail vein in a 2 mL/kg dosing volume. Blood samples were collected in K2EDTA tubes at 5 min, 15 min, 30 min, 1 h, 2 h, 4 h, 8 h, and urine was collected over 8 hours post dose. The blood samples were kept on wet ice until plasma separation by centrifugation at room temperature; 10 min; 2500 G, which was performed within 60 min after sampling. The plasma samples were transferred into plastic tubes, frozen and stored at −80° C. until analysis.
Plasma and urine samples were analyzed by LC-HRMS after solid phase extraction, using a stable isotope-labeled internal standard (^13C6, ^15N-DPI-4452). Chromatographic separation was run on a Waters Acquity HSS T3 C18 2.1×50 mm, 1.8 μm column. Detection was achieved on a Sciex API6600 TOF mass spectrometer. The lower limit of quantification was 1.00 ng/mL in plasma and urine.
The non-compartmental (NCA) pharmacokinetic analysis of plasma concentration data was conducted using Phoenix 64 WinNonlin (Build 8.3.3.33) software. Nominal doses were used for all animals. The terminal phase half-life (T1/2) was calculated by least-squares regression analysis of the terminal linear part of the log concentration-time curve. The area under the plasma concentration-time curve (AUC) was determined with the linear trapezoidal rule for increasing values and log trapezoidal rule for decreasing values up to the last measurable concentration.

[3] = dog, iv, 16 ug/kg, Female, 16 μg/kg single i.v. bolus, mean n = 3
[4] = dog, iv, 16 ug/kg, Male, 16 μg/kg single i.v. bolus, mean n = 3
[5] = dog, iv, 80 ug/kg, Female, 80 μg/kg single i.v. bolus, mean n = 3
[6] = dog, iv, 80 ug/kg, Male, 80 μg/kg single i.v. bolus, mean n = 3
[7] = dog, iv, 400 ug/kg, Female, 400 μg/kg single i.v. bolus, mean n = 3
[8] = dog, iv, 400 ug/kg, Male, 400 μg/kg single i.v. bolus, mean n = 3

## CC(C)C[C@@H]1NC(=O)[C@H](Cc2cccc(NC(=O)CCCS(N)(=O)=O)c2)NC(=O)[C@H](CC(=O)O)NC(=O)[C@H]2CCCN2C(=O)[C@H](CCC(=O)O)NC(=O)[C@@H](NC(=O)[C@H](CCC(N)=O)NC(=O)CN2CCN(C(=O)CN3CCN(CC(=O)O)CCN(CC(=O)O)CCN(CC(=O)O)CC3)CC2)CSCc2cccc(c2)CSC[C@@H](C(N)=O)NC(=O)[C@H](CO)NC(=O)[C@H](Cc2c[nH]c3ccccc23)NC(=O)[C@H]([C@@H](C)O)NC1=O [DPI-4452, DOTA-PPAc-Gln-[Cys(3MeBn)-Glu-pro-Asp-Af3(Cpsu)-Leu-Thr-Trp-Ser-Cys]-NH2]
[1]; 60 kg human
  human equivalent dose of the NOAEL: 13.3 mg
[1]; 1 hour after dosing, 16, 80, 400 μg/kg
  central nervous system effects (FOB): No effects were observed on the central nervous system
[1]; Female, 16 μg/kg single i.v. bolus
  tlast: 1 h
[1]; Female, 80 μg/kg single i.v. bolus
  tlast: 3 h
[1]; Female, 400 μg/kg single i.v. bolus, mean n = 3
  AUClast: 0.771 µg·h/mL
[1]; Female, 400 μg/kg single i.v. bolus
  tlast: 3 h
[1]; Male, 16 μg/kg single i.v. bolus
  tlast: 1 h
[1]; Male, 80 μg/kg single i.v. bolus
  tlast: 2 h
[1]; Male, 400 μg/kg single i.v. bolus, mean n = 3
  AUClast: 0.854 µg·h/mL
[1]; Male, 400 μg/kg single i.v. bolus
  tlast: 3 h
[1]; beagle dogs, single i.v. bolus up to 400 μg/kg
  tolerability: well tolerated
[1]; dog, iv, 16 ug/kg, Female, 16 μg/kg single i.v. bolus
  half-life: 14.3 min
[1]; [3]
  clearance: 1.27 L/h/kg
  level at 5 min: 0.0377 µg/mL
  Vd: 0.3 L/kg
[1]; dog, iv, 16 ug/kg, Female, 16 μg/kg single i.v. bolus, mean n = 3, read-out: AUClast
  AUC(0-t): 0.0124 µg·h/mL
[1]; dog, iv, 16 ug/kg, Male, 16 μg/kg single i.v. bolus
  half-life: 15.5 min
[1]; [4]
  clearance: 1.1 L/h/kg
  level at 5 min: 0.0435 µg/mL
  Vd: 0.26 L/kg
[1]; dog, iv, 16 ug/kg, Male, 16 μg/kg single i.v. bolus, mean n = 3, read-out: AUClast
  AUC(0-t): 0.014 µg·h/mL
[1]; dog, iv, 80 ug/kg, Female, 80 μg/kg single i.v. bolus
  half-life: 23.2 min
[1]; [5]
  clearance: 0.556 L/h/kg
  level at 5 min: 0.346 µg/mL
  Vd: 0.21 L/kg
[1]; dog, iv, 80 ug/kg, Female, 80 μg/kg single i.v. bolus, mean n = 3, read-out: AUClast
  AUC(0-t): 0.144 µg·h/mL
[1]; dog, iv, 80 ug/kg, Male, 80 μg/kg single i.v. bolus
  half-life: 21.7 min
[1]; [6]
  clearance: 0.606 L/h/kg
  level at 5 min: 0.332 µg/mL
  Vd: 0.21 L/kg
[1]; dog, iv, 80 ug/kg, Male, 80 μg/kg single i.v. bolus, mean n = 3, read-out: AUClast
  AUC(0-t): 0.132 µg·h/mL
[1]; dog, iv, 400 ug/kg, Female, 400 μg/kg single i.v. bolus
  half-life: 21.8 min
[1]; [7]
  clearance: 0.518 L/h/kg
  level at 5 min: 1.76 µg/mL
  Vd: 0.19 L/kg
[1]; dog, iv, 400 ug/kg, Male, 400 μg/kg single i.v. bolus
  half-life: 23.7 min
[1]; [8]
  clearance: 0.473 L/h/kg
  level at 5 min: 1.84 µg/mL
  Vd: 0.19 L/kg
[1]; both sexes, dog, in vivo, iv, beagle dogs, single i.v. bolus
  NOAEL at 14 days: 0.4 mg/kg
[1]; female, dog, iv, 400 ug/kg, females, 400 μg/kg i.v., read-out: mean AUCtlast at the NOAEL
  AUC(0-t): 0.771 µg·h/mL
[1]; jacketed external telemetry, 16, 80, 400 μg/kg
  cardiovascular and respiratory safety pharmacology: no related effect on cardiovascular or respiratory parameters
[1]; male, dog, iv, 400 ug/kg, males, 400 μg/kg i.v., read-out: mean AUCtlast at the NOAEL
  AUC(0-t): 0.854 µg·h/mL
[1]; total ligand mass dose 500 μg/patient
  NOAEL cover of the predicted human dose: more than 25 times
[2]; i.v. 0.7 mg/kg
  AUC(0-inf): 0.424 µg·h/mL
  clearance: 1.65 L/h/kg
  half-life: 16.8 min
  Vd: 0.408 L/kg
[2]; i.v. 5.5 mg/kg
  AUC(0-inf): 2.82 µg·h/mL
  clearance: 1.95 L/h/kg
  half-life: 27.9 min
  Vd: 0.455 L/kg
